Assay results from US8809333B2, “Imidazole, pyrazole, and triazole derivatives useful as antibacterial agents” (Pfizer Inc., priority 2011, dated 2014).
Values after ≈ are worked out from the molar mass of the structure shown. Read-outs that look alike come from different tables or passages of the source.

What was measured:
[1] = test system: Pseudomonas aeruginosa UI-18: Wild-type (PA-7); test: MIC determination (CLSI), PA-7; format: cell-based; details: Pseudomonas aeruginosa UI-18 wild-type; overnight incubation; lower of duplicate values; read-out: PA-7 (MIC)
Outline: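 Broth dilution MIC per CLSI M7-A8, using 2-fold compound dilutions incubated overnight; MIC is the lowest concentration with no visible growth versus the drug-free control. Run in duplicate, lower value reported when within 2-fold. Control organisms and reference compounds were included for QC.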

[2] = test system: Escherichia coli EC-1: VOGEL, mouse virulent; test: MIC determination (CLSI), EC-1; format: cell-based; details: Escherichia coli, read-out: EC-1 (MIC)
Outline: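 Broth dilution MIC per CLSI M7-A8, with 2-fold compound dilutions incubated overnight with a standard inoculum. MIC is the lowest concentration visibly inhibiting growth versus drug-free control; tested in duplicate, reporting the lower value when within 2-fold, with QC organisms and reference compounds required in range.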

[3] = test system: Klebsiella pneumoniae: Ciprofloxacin-resistant isolate, expresses ESBL, clinical isolate (KP-3700); test: MIC determination (CLSI), KP-3700; format: cell-based; details: overnight incubation, lower of duplicate values
Outline: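 Broth dilution MIC per CLSI M7-A8 against the ciprofloxacin-resistant, ESBL-expressing clinical isolate, 2-fold concentration steps, overnight incubation, visual read of lowest growth-inhibiting concentration. Tested in duplicate; lower value reported when within 2-fold; control organisms and reference compounds required within range.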

[4] = test system: Acinetobacter baumannii/haemolyticus: Multidrug-resistant clinical isolate (AB-3167); test: MIC determination (CLSI), AB-3167; format: cell-based; details: Acinetobacter baumannii/haemolyticus multidrug-resistant clinical isolate; overnight incubation; lower of duplicate values; read-out: AB-3167 (MIC)
Outline: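 Broth dilution MIC per CLSI M7-A8, 2-fold concentration steps, overnight incubation, visual read of lowest concentration inhibiting growth versus drug-free control. Tested in duplicate; lower value reported if within 2-fold, otherwise repeated; QC organisms and reference drugs required within range.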

[5] = biological target: T1, Pseudomonas aeruginosa LpxC enzyme (Pseudomonas aeruginosa, UniProt P47205); test: IC50 assay, LpxC enzyme from P. aeruginosa (BioTrove RapidFire mass spectrometry); format: biochemical
T1 construct: made in house; host or cells: E. coli
T1 sequence (P47205 1-303): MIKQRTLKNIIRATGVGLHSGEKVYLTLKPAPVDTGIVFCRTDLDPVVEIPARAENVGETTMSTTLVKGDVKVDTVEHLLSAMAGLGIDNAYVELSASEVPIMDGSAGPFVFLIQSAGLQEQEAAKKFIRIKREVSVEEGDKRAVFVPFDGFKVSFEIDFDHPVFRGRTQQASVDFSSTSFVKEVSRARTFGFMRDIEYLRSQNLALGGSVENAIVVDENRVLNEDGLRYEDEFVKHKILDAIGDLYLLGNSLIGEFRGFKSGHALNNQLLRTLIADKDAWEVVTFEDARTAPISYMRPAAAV
Outline: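 P. aeruginosa LpxC reaction run 1 hour, stopped with 1 N HCl, and substrate-to-product conversion quantified by RapidFire mass spectrometry. IC50 calculated from percent conversion using a no-enzyme control.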

[6] = P. aeruginosa LpxC enzyme 0.1 nM, 25° C., 1 hour, pH 8.0, read-out: PA: IC50

SMILES | MIC [1] [µg/mL] | MIC [2] [µg/mL] | KP-3700 (MIC) [3] [µg/mL] | MIC [4] [µg/mL] | IC50 [5, 6] [nM] | IC50 [5] [nM]
CC(C)COc1ccc(-c2cnn(CCC(C)(C(=O)NO)S(C)(=O)=O)c2)cn1 (centres unmarked) [Example 81, N-hydroxy-2-methyl-4-{4-[6-(2-methylpropoxy)pyridin-3-yl]-1H-pyrazol-1-yl}-2-(methylsulfonyl)butanamide] | 32 (≈ 78 µM) | 8 (≈ 19.5 µM) | 32 | > 64 | 2.07 | 
C[C@@](CCn1cc(-c2cnccn2)cn1)(C(=O)NO)S(C)(=O)=O [Example 8, (2R)—N-hydroxy-2-methyl-2-(methylsulfonyl)-4-[4-(pyrazin-2-yl)-1H-pyrazol-1-yl]butanamide] | > 64 | > 64 | >64.0 | > 64 | > 100 | 
C[C@@](CCn1cc(-c2nc3ccccc3o2)cn1)(C(=O)NO)S(C)(=O)=O [Example 10, (2R)-4-[4-(1,3-benzoxazol-2-yl)-1H-pyrazol-1-yl]-N-hydroxy-2-methyl-2-(methylsulfonyl)butanamide] | 32 (≈ 84.6 µM) | 32 (≈ 84.6 µM) | >64.0 | 32 (≈ 84.6 µM) | 13.8 | 
C[C@@](CCn1cc(C2CCCC2)cn1)(C(=O)NO)S(C)(=O)=O [Example 3, (2R)-4-(4-cyclopentyl-1H-pyrazol-1-yl)-N-hydroxy-2-methyl-2-(methylsulfonyl)butanamide] | 8 (≈ 24.3 µM) | 64 (≈ 194 µM) | 64 | 64 (≈ 194 µM) | 14.3 | 
C[C@@](CCn1cc(C#Cc2cccc(C#N)c2)cn1)(C(=O)NO)S(C)(=O)=O [Example 11, (2R)-4-{4-[(3-cyanophenyl)ethynyl]-1H-pyrazol-1-yl}-N-hydroxy-2-methyl-2-(methylsulfonyl)butanamide] | 16 (≈ 41.4 µM) | 32 (≈ 82.8 µM) | 64 | > 64 | 12.1 | 
CC(CCn1cc(-c2ccc(C3(C#N)CC3)cc2)cn1)(C(=O)NO)S(C)(=O)=O (centres unmarked) [Example 66, 4-{4-[4-(1-cyanocyclopropyl)phenyl]-1H-pyrazol-1-yl}-N-hydroxy-2-methyl-2-(methylsulfonyl)butanamide] | 16 (≈ 39.8 µM) | > 64 | >64.0 | > 64 | 2.83 | 
CC(CCn1cc(-c2ccc3c(c2)C(=O)CCC3)cn1)(C(=O)NO)S(C)(=O)=O (centres unmarked) [Example 75, N-hydroxy-2-methyl-2-(methylsulfonyl)-4-[4-(8-oxo-5,6,7,8-tetrahydronaphthalen-2-yl)-1H-pyrazol-1-yl]butanamide] | 64 (≈ 158 µM) | > 64 | >64.0 | > 64 | 7.17 | 
C[C@@](CCn1cc(-c2ccc(F)c(F)c2)nn1)(C(=O)NO)S(C)(=O)=O [Example 20, (2R)-4-[4-(3,4-difluorophenyl)-1H-1,2,3-triazol-1-yl]-N-hydroxy-2-methyl-2-(methylsulfonyl)butanamide] | 4 (≈ 10.7 µM) | 32 (≈ 85.5 µM) | >64.0 | > 64 |  | 1.87
Cc1nn(CC[C@](C)(C(=O)NO)S(C)(=O)=O)cc1-c1ccccc1 [Example 4, (2R)—N-hydroxy-2-methyl-4-(3-methyl-4-phenyl-1H-pyrazol-1-yl)-2-(methylsulfonyl)butanamide] | 8 (≈ 22.8 µM) | 8 (≈ 22.8 µM) | 32 | > 64 | 14.6 | 
CC(CCn1cc(-c2cccc(-c3ccno3)c2)cn1)(C(=O)NO)S(C)(=O)=O (centres unmarked) [Example 74, N-hydroxy-2-methyl-2-(methylsulfonyl)-4-{4-[3-(1,2-oxazol-5-yl)phenyl]-1H-pyrazol-1-yl}butanamide] | 32 (≈ 79.1 µM) | > 64 | >64.0 | > 64 | 2.45 | 
C[C@@](CCn1cc(C2CCCCC2)cn1)(C(=O)NO)S(C)(=O)=O [Example 2, (2R)-4-(4-cyclohexyl-1H-pyrazol-1-yl)-N-hydroxy-2-methyl-2-(methylsulfonyl)butanamide] | 1 (≈ 2.91 µM) | 32 (≈ 93.2 µM) | 64 | > 64 | 0.752 | 
Cc1ccccc1-c1cnn(CCC(C)(C(=O)NO)S(C)(=O)=O)c1 (centres unmarked) [Example 43, N-hydroxy-2-methyl-4-[4-(2-methylphenyl)-1H-pyrazol-1-yl]-2-(methylsulfonyl)butanamide] | 16 (≈ 45.5 µM) | 32 (≈ 91.1 µM) | >64.0 | > 64 | 11.3 | 
Cc1ccc(C)c(OCc2cn(CCC(C)(C(=O)NO)S(C)(=O)=O)nn2)c1 (centres unmarked) [Example 39, 4-{4-[(2,5-dimethylphenoxy)methyl]-1H-1,2,3-triazol-1-yl}-N-hydroxy-2-methyl-2-(methylsulfonyl)butanamide] | > 64 | > 64 | >64.0 | > 64 | 51.3 | 
CC(CCn1cc(-c2ccc(F)cc2F)cn1)(C(=O)NO)S(C)(=O)=O (centres unmarked) [Example 55, 4-[4-(2,4-difluorophenyl)-1H-pyrazol-1-yl]-N-hydroxy-2-methyl-2-(methylsulfonyl)butanamide] | 2 (≈ 5.36 µM) | 8 (≈ 21.4 µM) | 64 | > 64 | 2.07 | 
CC(CCn1cc(-c2ccc3c(c2)CCC3=O)cn1)(C(=O)NO)S(C)(=O)=O (centres unmarked) [Example 62, N-hydroxy-2-methyl-2-(methylsulfonyl)-4-[4-(1-oxo-2,3-dihydro-1H-inden-5-yl)-1H-pyrazol-1-yl]butanamide] | 16 (≈ 40.9 µM) | > 64 | >64.0 | > 64 | 0.754 | 
CC(CCn1cc(-c2ccc(C(F)(F)F)cn2)cn1)(C(=O)NO)S(C)(=O)=O (centres unmarked) [Example 76, N-hydroxy-2-methyl-2-(methylsulfonyl)-4-{4-[5-(trifluoromethyl)pyridin-2-yl]-1H-pyrazol-1-yl}butanamide] | 64 (≈ 157 µM) | > 64 | >64.0 | > 64 | 37.3 | 
CC(CCn1cc(-c2ccccc2F)cn1)(C(=O)NO)S(C)(=O)=O (centres unmarked) [Example 45, 4-[4-(2-fluorophenyl)-1H-pyrazol-1-yl]-N-hydroxy-2-methyl-2-(methylsulfonyl)butanamide] | 2 (≈ 5.63 µM) | 16 (≈ 45 µM) | 64 | > 64 | 2.5 | 
CC(CCn1cc(-c2ccccc2)cn1)(C(=O)NO)S(C)(=O)=O (centres unmarked) [Example 40, N-hydroxy-2-methyl-2-(methylsulfonyl)-4-(4-phenyl-1H-pyrazol-1-yl)butanamide] | 2 (≈ 5.93 µM) | 32 (≈ 94.8 µM) | >64.0 | > 64 |  | 4.63
Cc1cc(O)ccc1-c1cnn(CCC(C)(C(=O)NO)S(C)(=O)=O)c1 (centres unmarked) [Example 49, N-hydroxy-4-[4-(4-hydroxy-2-methylphenyl)-1H-pyrazol-1-yl]-2-methyl-2-(methylsulfonyl)butanamide] | > 64 | > 64 | >64.0 | > 64 | 90.4 | 
CC(CCn1cc(-c2ccccc2Br)nn1)(C(=O)NO)S(C)(=O)=O (centres unmarked) [Example 38, 4-[4-(2-bromophenyl)-1H-1,2,3-triazol-1-yl]-N-hydroxy-2-methyl-2-(methylsulfonyl)butanamide] | 32 (≈ 76.7 µM) | 16 (≈ 38.3 µM) | >64.0 | > 64 | 18.9 | 
Cc1c(F)cccc1-c1cnn(CCC(C)(C(=O)NO)S(C)(=O)=O)c1 (centres unmarked) [Example 53, 4-[4-(3-fluoro-2-methylphenyl)-1H-pyrazol-1-yl]-N-hydroxy-2-methyl-2-(methylsulfonyl)butanamide] | 16 (≈ 43.3 µM) | 32 (≈ 86.6 µM) | >64.0 | > 64 | 9.28 | 
CCOc1ccc(-c2cnn(CCC(C)(C(=O)NO)S(C)(=O)=O)c2)cc1C#N (centres unmarked) [Example 78, 4-[4-(3-cyano-4-ethoxyphenyl)-1H-pyrazol-1-yl]-N-hydroxy-2-methyl-2-(methylsulfonyl)butanamide] | 64 (≈ 157 µM) | > 64 | >64.0 | > 64 | 21.7 | 
